Reference: patent publication US8507660B2 (priority 2009, dated 2013)

Assay: Storage stability of sialyl phosphate donors
Assay type: physicochemical
Conditions: −20° C., several months
Protocol: The reaction was complete in 5 h to give a mixture of α- and β-anomers. The sialyl α-phosphate 2a and sialyl β-phosphate 2b can be easily separated by silica gel column chromatography and are both stable at −20° C. for several months.

## CCCCOP(=O)(OCCCC)OC1(C(=O)OC)CC(OC(C)=O)[C@@H](NC(C)=O)C([C@H](OC(C)=O)[C@@H](COC(C)=O)OC(C)=O)O1 (stereo partly shown) [2a]
  stability on storage: stable
